# Experimental data: publication PMC6696208, “Antityrosinase, Antioxidant, and Cytotoxic Activities of Phytochemical Constituents from Manilkara zapota L. Bark” (Molecules, 2019)
# Values joined by “and” are separate entries in the source; they are usually repeats but may differ in a detail not shown here. Equal entries are not always repeated. Where two headings read alike, the source gives them in different places. Marks after values point to notes of the source that are not given here.
# Experiments:
# Mushroom tyrosinase [1] = biological target: T1, Mushroom tyrosinase (Agaricus bisporus, UniProt C7FF04); test: Kinetic analysis of tyrosinase inhibition, monophenolase activity (Lineweaver-Burk plots); type: biochemical; conditions: L-tyrosine 0-200 μM, samples 20-1000 μM
# T1 sequence (G1K3P4 entry or part of it): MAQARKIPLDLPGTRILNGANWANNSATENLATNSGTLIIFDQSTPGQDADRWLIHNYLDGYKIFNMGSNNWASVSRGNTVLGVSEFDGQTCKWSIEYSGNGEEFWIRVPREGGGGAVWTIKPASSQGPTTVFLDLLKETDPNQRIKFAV
# T1 sequence (C7FF04 1-392): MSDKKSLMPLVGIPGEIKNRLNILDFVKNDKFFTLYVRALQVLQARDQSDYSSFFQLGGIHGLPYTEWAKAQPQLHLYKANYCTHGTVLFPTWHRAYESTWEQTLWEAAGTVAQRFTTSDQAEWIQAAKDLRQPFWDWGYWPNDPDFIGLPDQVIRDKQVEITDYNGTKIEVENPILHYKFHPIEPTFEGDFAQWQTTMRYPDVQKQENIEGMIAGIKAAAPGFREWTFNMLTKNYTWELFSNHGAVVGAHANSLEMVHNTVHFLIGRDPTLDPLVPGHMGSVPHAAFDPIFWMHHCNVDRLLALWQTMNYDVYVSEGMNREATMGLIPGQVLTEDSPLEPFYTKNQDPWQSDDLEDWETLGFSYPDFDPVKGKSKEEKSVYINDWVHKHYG
# Procedure: (§1) The kinetic analysis of tyrosinase inhibitory activity was performed with respect to both monophenolase and diphenolase activities. The concentration ranges of the samples were 20–1000 μM. Both L-tyrosine and L-DOPA were concentrated at 0, 25, 50, 100, and 200 μM, respectively. The inhibitory kinetics of the samples were analyzed using Lineweaver–Burk plots.
# Mushroom tyrosinase [2] = biological target: T1, Mushroom tyrosinase; test: Kinetic analysis of tyrosinase inhibition, diphenolase activity (Lineweaver-Burk plots); type: biochemical; conditions: L-DOPA 0-200 μM, samples 20-1000 μM
# Procedure: as §1
# [3] = DPPH radical scavenging assay; conditions: mean ± SD of three replicates
# Procedure: The DPPH radical scavenging activity was determined by a modified method based on a previously described procedure. Briefly, a solution containing 50 µL of sample (100 mg/mL) was dissolved in DMSO/ethanol (1:4 v/v) and 150 µL of 0.05 M DPPH solution in methanol. Then, the reaction mixture was mixed and was incubated in the dark for 30 min at 37 °C. The absorbance of the reaction mixture was measured at 517 nm. Trolox was used as a positive control. The DPPH scavenging effect was calculated according to the following equation:(3) DPPH radical scavenging activity (%)=[1−(As−Ab)/Ad]× 100. where As is the absorbance of the sample mixed with DPPH solution, Ab is the absorbance of the sample without DPPH solution, and Ad is the absorbance of DPPH solution without the sample.
# [4] = ABTS radical scavenging assay; conditions: mean ± SD of three replicates
# Procedure: The ABTS radical scavenging capacity was determined using a modified version of a previously described procedure. The stock solution included 100 mL of 7.0 mM ABTS solution in methanol and 100 mL of 2.4 mM aqueous solution of potassium persulfate. Then, the reaction mixture was left in the dark for 14 h at 37 °C. The solution of 1 mL of ABTS solution was diluted with 60 mL of absolute ethanol to determine an absorbance of 0.700 ± 0.001 units at 734 nm using a spectrophotometer. Next, 500 µL of the sample (100 mg/mL) was reacted with 500 µL of ABTS solution and the absorbance was measured at 734 nm after 7 min of incubation using a spectrophotometer. The results were compared with Trolox as a standard, and the percentage of scavenging activity was calculated according to the following equation:(4) ABTS radical scavenging activity (%)=[(Ac−As)/Ac]×100. where Ac is the absorbance of ABTS radicals with ethanol and As is the absorbance of ABTS radicals with the test sample or positive control.
# [5] = FRAP assay (ferric reducing antioxidant power); conditions: FRAP value, expressed as ferrous sulphate equivalent, mean ± SD of three replicates
# Procedure: FRAP assay was conducted using a modified version of a method originally reported in an earlier study. The FRAP reagent contained 25 mL of 0.3 M acetate buffer (pH 3.6), 2.5 mL of 20 mM ferric chloride solution, and 2.5 mL of 10 mM 2,4,6-tris(2-pyridyl)-1,3,5-triazine and was brought to a final volume of 50 mL using 40 mM HCl solution. Then, the FRAP reagent was put into a water bath for 30 min at 50 °C. Next, 600 μL of FRAP reagent was added to 25 μL of the sample (100 mg/mL). The absorbance was recorded at 595 nm after 4 min of incubation using a spectrophotometer. Trolox was used as a positive control. The ferric reducing capacity was expressed as a ferrous sulphate equivalent.
# [6] = test system: BT474 breast carcinoma cell line; test: MTT cytotoxicity assay, BT474; type: cell-based; conditions: Homo sapiens, BT-474, 72 h
# Procedure: (§2) Cytotoxic activity was evaluated in vitro using the microtitration colorimetric method of MTT reduction. In this study, five human carcinoma cell lines were used, including BT474 (ATCC® HTB20^TM), Chago-K1 (National Cancer Institute, Thailand), HepG2 (ATCC® HB8065^TM), KATO-III (ATCC® HTB103^TM), and SW620 (ATCC® CCL227^TM). Additionally, human diploid lung fibroblast (WI-38, ATCC® CCL75^TM) was used as the normal cell line for comparison with the carcinoma cell lines. The culturing of these cell lines was derived in complete medium, including Roswell Park Memorial Institute medium (RPMI-1640), fetal bovine serum (5%, v/v), 25 mM of 4-(2-hydroxyethyl)-1-piperazineethanesulfonic acid (HEPES), sodium bicarbonate (0.25%, w/v), and kanamycin (100 μg/mL). Doxorubicin was used as a positive control. Each well plate contained 198 μL of culture medium of cell lines and was incubated with 5% CO2 atmosphere for 24 h at 37 °C. Then, the culture cells were treated with 2 μL/well of the sample and incubated for 72 h at 37 °C. MTT solution (2 μL, 5 mg/mL in normal saline) was added into each well, and the plates were incubated for an additional 4 h. The supernatant was aspirated out. After that, a mixture of 25 μL of 0.1 M glycine and 150 μL of DMSO was added. The plates were shaken to dissolve the purple-blue crystal of formazan. Then, the absorbance was determined by a microplate reader at 540 nm. The relative cell survival as a percentage of the control (DMSO), which was set at 100%, was calculated using the following formula:(5) The cell survival (%)=[As/Ac] × 100. where As is the absorbance of the test sample and Ac is the absorbance of […].
# [7] = test system: Chago-K1 lung bronchus carcinoma cell line; test: MTT cytotoxicity assay, Chago-K1; type: cell-based; conditions: Homo sapiens, ChaGo-K-1, 72 h
# Procedure: as §2
# [8] = test system: HepG2 liver carcinoma cell line; test: MTT cytotoxicity assay, HepG2; type: cell-based; conditions: Homo sapiens, 72 h
# Procedure: as §2
# [9] = test system: KATO-III gastric carcinoma cell line; test: MTT cytotoxicity assay, KATO-III; type: cell-based; conditions: Homo sapiens, 72 h
# Procedure: as §2
# [10] = test system: SW620 colon carcinoma cell line; test: MTT cytotoxicity assay, SW620; type: cell-based; conditions: Homo sapiens, SW-620, 72 h
# Procedure: as §2
# [11] = test system: WI-38 human diploid lung fibroblast; test: MTT cytotoxicity assay, WI-38 normal cell line; type: cell-based; conditions: 72 h
# Procedure: as §2
# tyrosinase = biological target: tyrosinase; parameters: method as in PMID 30364385; conditions: L-DOPA as substrate; read-out: IC50, antityrosinase; cited from earlier work
# [12] = parameters: method as in PMID 30364385; conditions: read-out: IC50 for DPPH; cited from earlier work
# [13] = parameters: method as in PMID 30364385; conditions: read-out: IC50 for ABTS; cited from earlier work
SMILES,"Type of inhibition, monophenolase activity (Mushroom tyrosinase [1])","Type of inhibition, diphenolase activity (Mushroom tyrosinase [2])",IC50 [3],IC50 [4],FRAP [5],FRAP ([5]; listed as 6-hydroxyflavanone (3)),IC50 [6],IC50 [7],IC50 [8],IC50 [9],IC50 [10],IC50 [11],FRAP ([5]; listed as (+)-dihydrokaempferol (4)),melting point,IC50 (tyrosinase),IC50 [12],IC50 [13]
"O=C1CC(c2ccccc2)Oc2ccc(O)cc21 (stereo not drawn) [6-Hydroxyflavanone (3), 6-hydroxyflavanone]",competitive,competitive,3.21 ± 0.7 µM,225.5 ± 0.95 µM,4.12 ± 0.12 ^c μM,4.12 ± 0.12 µM,86.16 ± 0.45 µM,57.7 ± 1.08 µM,65.8 ± 2.37 µM,88.8 ± 3.7 µM,82.8 ± 1.33 µM,> 416 µM,,,,,
"CC1(C)CC[C@]2(C)CC=C3[C@]4(C)CC[C@H]5C(C)(C)[C@@H](O)CC[C@]5(C)[C@H]4CC[C@@]3(C)[C@@H]2C1 [Taraxerol (6), taraxerol]",noncompetitive,uncompetitive,16.3 ± 0.33 µM,630.84 ± 0.54 µM,1.46 ± 0.11 ^a μM,,> 235 µM,> 235 µM,> 235 µM,> 235 µM,> 235 µM,> 235 µM,,,,,
"COc1cccc2c1C(=O)c1c(O)c3c(c(O)c1C2=O)C[C@@](O)(C(=O)CO)C[C@@H]3O[C@H]1C[C@H](N)[C@H](O)[C@H](C)O1 [Doxorubicin, reference compound]",,,,,,,1.21 ± 0.2 µM,1.58 ± 0.4 µM,2.7 ± 0.83 µM,1.78 ± 0.83 µM,1.82 ± 0.39 µM,> 184 µM,,,,,
"CC1(C)CC[C@]2(C)CC=C3[C@]4(C)CC[C@H]5C(C)(C)C(=O)CC[C@]5(C)[C@H]4CC[C@@]3(C)[C@@H]2C1 [Taraxerone (7), taraxerone]",mixed,mixed,10.2 ± 0.4 µM,334.8 ± 0.99 µM,1.12 ± 0.13 ^a μM,,19.2 ± 0.4 µM,26.8 ± 0.97 µM,20.4 ± 1.43 µM,26.5 ± 0.57 µM,> 234 µM,> 234 µM,,,,,
"O=C(O)c1ccc(O)c(O)c1 [3,4-Dihydroxybenzoic acid (5), 3,4-dihydroxybenzoic acid]",competitive,competitive,4.71 ± 0.1 µM,290.1 ± 0.95 µM,3.00 ± 0.40 ^b μM,,85.2 ± 3.96 µM,79.2 ± 4.02 µM,364.7 ± 2.27 µM,507.5 ± 4.61 µM,591.4 ± 0.71 µM,> 649 µM,,,,,
"Cc1c(C)c2c(c(C)c1O)CCC(C)(C(=O)O)O2 (stereo not drawn) [Trolox, reference compound]",,,1.92 ± 0.22 µM,188.4 ± 0.43 µM,6.10 ± 0.28 μM and 6.10 ± 0.28 ^d μM,,,,,,,,,,,,
"O=C1c2c(O)cc(O)cc2O[C@H](c2ccc(O)cc2)[C@H]1O [(+)-Dihydrokaempferol (4), (+)-dihydrokaempferol]",competitive,competitive,2.21 ± 0.77 µM,214.8 ± 0.51 µM,6.23 ± 0.10 ^d μM,,11.7 ± 0.42 µM,12.3 ± 0.73 µM,13.7 ± 0.38 µM,39.79 ± 0.38 µM,41.1 ± 1.08 µM,> 347 µM,6.23 ± 0.10 µM,,,,
"C=C(C)[C@@H]1CC[C@]2(C)CC[C@]3(C)C(CCC4[C@@]5(C)CCC(OC(C)=O)C(C)(C)C5CC[C@]43C)C12 (stereo partly drawn) [Lupeol acetate (8), lupeol acetate]",mixed,uncompetitive,87.1 ± 0.31 µM,669.62 ± 0.42 µM,1.28 ± 0.30 ^a μM,,60.2 ± 0.9 µM,199.9 ± 0.3 µM,> 213 µM,136.7 ± 0.66 µM,182.7 ± 1.51 µM,> 213 µM,,210 to 212 °C,,,
"CO[C@H]1CC[C@@]2(C)C(CC[C@@]3(C)C4=CC[C@]5(C)CCC(C)(C)CC5[C@@]4(C)CCC23)C1(C)C (stereo partly drawn) [Taraxerol methyl ether (1), taraxerol methyl ether]",noncompetitive,noncompetitive,77.31 ± 0.6 µM,520.22 ± 0.3 µM,1.31 ± 0.16 ^a μM,,185 ± 1.61 µM,> 227 µM,> 227 µM,> 227 µM,> 227 µM,> 227 µM,,278 to 280 °C,,,
O=C1c2c(O)cc(O)cc2O[C@H](c2cc(O)c(O)c(O)c2)[C@H]1O [dihydromyricetin],,,,,,,,,,,,,,,3.33 µM,12.4 µM,3.41 µM
